From patent US9044428B2, “Neuritogenic peptides” (Neoloch ApS, priority 2005, dated 2015) come the findings set out here.

SMILES strings stand for the structures. Peptide text beside a SMILES is read from it.

Test [1] deals with Primary cultures of CGN. Nature of the test: Survival of CGN induced to undergo apoptosis (low KCl) in vitro. Particulars: apoptosis induced by reducing KCl to 5 mM, two days. The class given is cell-based, rat. How it is done: Primary cultures of CGN were plated at a density of 100 000 cells/cm^2 on poly-L-lysine coated 8-well permanox slides in Neurobasal-A medium (Gibco BRL) supplemented with 2% (v/v) B27, 0.5% (v/v) glutamax, 100 units/mL penicillin, 100 μg/mL streptomycin and KCl, making the final concentration of KCl in the medium 40 mm, Twenty-four hours after plating, Ara-C (Sigma-Aldrich) was added to a final concentration of 10 μm to avoid proliferation of glial cells, after which the neurons were allowed to differentiate for a further 6 days at 37° C. Apoptotic cell death was induced by washing twice and changing the medium to Basal Medium Eagle (BME; Gibco BRL) supplemented with 1% (v/v) glutamine, 100 U/mL, penicillin and 100 μg/mL streptomycin, 3.5 g d-glucose/L and 1% (v/v) sodium pyruvate (Gibco BRL) together with various concentrations of peptide. Thereby the concentration of potassium in the cultures was reduced to 5 mm KCl (D'Mello et al. 1993). Two days after induction of apoptosis, the cells were fixed with 4% (v/v) formaldehyde and stained with Hoechst 33258 as described for the survival assay employing hippocampal neurons.

Test [2] has as its system human erythroleukemia cells TF-1. Nature of the test: Proliferation of TF-1 cells (BrdU incorporation ELISA). Type of test: cell-based. On the procedure:
Evaluation of the effect of four EPO-derived peptides on cell proliferation was performed using a TF-1 cell line. The TF-1 cell line was established from sample from patient with severe pancytopenia (human erythroleukemia). The growth of these cells is dependent of the presence of the granulocyte-macrophage colony-stimulating factor (GM-SCF). The TF-1 cells were grown in Dulbecco's Modified Eagle Medium (DMEM) supplemented with 10% (v/v) heat inactivated foetal calf serum (FCS), 2 mM GlutaMAX, penicillin (100 U/ml) and streptomycin (100 μg/ml), 10 mM HEPES, 1 mM sodium pyruvate, 1% fungizone. The growth medium was supplemented with 2 ng/ml GM-CSF. Cell proliferation was determined using a Biotrak ELISA system, version 2 (Amersham Biosciences, UK). The procedure is based on measurement of the levels of 5-bromo-2′-deoxyuridine (BrdU) incorporation during DNA synthesis in proliferating cells. Briefly, passaged cells were washed once with starving medium (culturing medium without GM-CSF) then plated in 96-well Nuclon culture microplates (Nuno, Denmark) at a density of 5000 cells/well and grown in starving medium containing 0.008, 0.04, 0.2, 1.0, 5.0, 25 and 50 μg/ml of the tested compounds. As a positive control the human recombinant erythropoietin (EPO) (Calbiochem, Denmark) was used in a concentration of 2.0 ng/ml. TF-1 cells were allowed to grow in the presence of peptides for 24 h and than to all wells (except negative controls) BrdU was added to a final concentration of 10 μM and cultures were further incubated for 24 h, fixed and processed according to the procedure recommended by manufacturer, […]
A general note: Uptake of a labelled nucleoside into DNA is a usual measure of proliferation.

Test [3] relates to rat brain after TBI. As to the kind of experiment: Programmed cell death after traumatic brain injury (TUNEL). Type of test: in vivo. Conditions: s.c., 3 days after lesion. How it is done: (§1) Male rats (wistar) (tree groups, 5 rats/group) were injected s.c with different Epo peptides (each group individually with Epo 2, Epo 3 or Epo 4) three times according to the scheme: • 1. the day before the lesion: a single injection of a peptide per animal (1 mg/100 g animal weight); • 2. the 1st day after the lesion: a single injection of a peptide per animal (1 mg/100 g animal weight): • 3. the 2nd day after the lesion: a single injection of a peptide per animal (1 mg/100 g animal weight); • 4. the 3rd day after the lesion: animals are sacrificed.
(§2) Control groups were a group (4 rats) injected with the vehicle (water) and a group (4 rats), injected with human recombinant EPO (hrEPO) in dose 50 μg/100 g rat according to the above scheme.
A traumatic brain injury (TBI) was induced by applying dry ice (−78 C) to the extracranial surface of the skull for 60 sec, which induces a focal injury in the right fronto-parietal cortex. Three days after the lesion (3 dpl) rats were deeply anesthetized with Brietal (10 mg/100 gr) and fixed by transcardial perfusion with 0.9% NaCl and 0.3% heparin, followed by Zamboni's fixative. The brains were removed, dehydrated according to the standard protocol, embedded in paraffin, and cut in 6-μm-thick frontal sections for further evaluation by immunohistochemistry and TUNEL. […]

In test [4] the test system is rat brain after TBI. As to the kind of experiment: Oxidative DNA damage after traumatic brain injury (8-oxoguanine immunostaining). Type of test: in vivo. Conditions: s.c., 3 days after lesion. On the procedure: as §1, §2
(§3) A traumatic brain injury (TBI) was induced by applying dry ice (−78 C) to the extracranial surface of the skull for 60 sec, which induces a focal injury in the right fronto-parietal cortex. Three days after the lesion (3 dpl) rats were deeply anesthetized with Brietal (10 mg/100 gr) and fixed by transcardial perfusion with 0.9% NaCl and 0.3% heparin, followed by Zamboni's fixative. The brains were removed, dehydrated according to the standard protocol, embedded in paraffin, and cut in 6-μm-thick frontal sections for further evaluation by immunohistochemistry and TUNEL.
(§4) For immunohistochemistry the sections of the brains were incubated overnight with polyclonal rabbit anti-cow GFAP, GAP-43, 8-oxoguanine, or PSA-NCAM antibodies 1:250 (Dakopatts). The primary antibodies were detected in the sections with biotinylated secondary antibodies followed by incubation with streptavidin-biotin-peroxidase (30 min). Afterwards, the sections were incubated with biotinylated tyramide and streptavidin-peroxidase complex (NEN, Life Science Products, USA, code NEL700A) prepared following the manufacturer recommendations, and visualized with 0.015% H2O2 in DAB/TBS for 10 min.

Test [5] concerns rat brain after TBI. Nature of the test: Neuroplasticity and neurite outgrowth in vivo after TBI (PSA-NCAM and GAP-43 immunostaining). How it is done:
as §1, §2, §3, §4

The nature of test [6]: Hematocrit in rats after the brain lesion. The class given is in vivo. Particulars: rat after brain lesion, peptide 1 mg/100 g s.c., p>0.02. How it is done:
as §1, §2

Consider `CC(C)C[C@H](NC(=O)CNC(=O)[C@H](CO)NC(=O)[C@@H](NC(=O)[C@H](C)NC(=O)[C@H](CCCCN)NC(=O)[C@H](CC(=O)O)NC(=O)[C@@H](NC(=O)[C@H](Cc1c[nH]cn1)NC(=O)[C@H](CC(C)C)NC(=O)[C@@H](N)CCC(N)=O)C(C)C)C(C)C)C(=O)N[C@@H](CCCNC(=N)N)C(=O)N[C@@H](CO)C(=O)N[C@@H](CC(C)C)C(=O)N[C@H](C(=O)N[C@H](C(=O)N[C@@H](CC(C)C)C(=O)N[C@@H](CC(C)C)C(=O)N[C@@H](CCCNC(=N)N)C(=O)N[C@@H](C)C(=O)O)[C@@H](C)O)[C@@H](C)O` [Epo3] (H-QLHVDKAVSGLRSLTTLLRA-OH), for which the “protection of CGN induced to undergo apoptosis (neuronal survival)” value in test [1] is reported as “strongest neuroprotective effect”. In addition, the “proliferation of TF-1 cells” value in test [2] (concentration of 50 μg/ml) is “stimulate proliferation of TF-1 cells”. Moreover, the “stimulation of haemopoietic cell proliferation (general conclusion)” value in test [2] (no concentration stated) is on record as “most potent among them”. Moreover, in test [3], the “TUNEL-positive apoptotic cells around the necrotic cavity” value is “lowest level of apoptosis”. For the same molecule, in test [4], the “8-oxoguanine positive cells (oxidative DNA damage)” value was “lowest number of the 8-oxoguanine positive cells”. Further, the “level of PSA-NCAM staining” value in test [5] (area adjusted to the lesion and subventricular zone) is “significantly increases the level of PSA-NCAM staining”. Also, the “neurite outgrowth in vivo (GAP-43 immunostaining)” value in test [5] (cortical lesion area, choroid plexus, hippocampus, hypothalamus) was “stimulates neurite outgrowth”. Besides, the “effect on the hematocrit vs control” value in test [6] was “no statistically significant effect”; in test [6] (listed as Epo 3) it was “no significant effect”.
